What was measured:
MDA-MB231 cells [1] = test: Live/dead determination of gel-embedded cell spheroids treated with anticancer agents; format: cell-based, human; conditions: 48 hours, Batimastat 4 μM, Staurosporine 1 μM; for number of dead cells (share of cells) / Number of Dead cells / Number of Living cells: MDA-MB231 spheroid in Matrigel; for Number of Dead cells: green fluorescence cell nuclei counted; for Number of Living cells: red fluorescence cell nuclei counted
Method: (§1) The protrusion-forming ability of the cell spheroids of the cancer cells treated with various anticancer agents was examined. As the cancer cells, MDA-MB231 cells of a cultured cell strain established from a human breast cancer cells were used. MDA-MB 231 cells were cultured under a condition with a temperature of 37° C. and a CO2 concentration of 5 vol % in a culture medium of DMEM containing 10% FBS.
(§2) Two thousand MDA-MB 231 cells and 5 μL of 10×Spheroid Formation ECM (manufactured by Trevigen, Inc.) were mixed in a culture medium to prepare a cancer cell solution of which the final amount was adjusted to 50 μL using DMEM (phenol red free), and then 50 μL of the cancer cell solution was injected into one well of the U bottom plate for forming a cell spheroid “Prime Surface (registered trade mark) U plate” (manufactured by Sumitomo Bakelite Co., LTD.), followed by culturing the cells for 72 hours to form cell spheroids.
(§3) The culture medium was removed from the U bottom plate as much as possible by suction while paying attention not to suck the spheroids, followed by carefully adding 100 μL of Matrigel (manufactured by Corning Incorporated) to the well. The U bottom plate was allowed to stand in an incubator at 37° C. for 1 hour, and the gel was cured to construct a cell spheroid embedded in a gel.
100 μL of culture mediums containing L-Sulforaphane (final concentration: 10 μM), Batimastat (final concentration: 4 μM), Mitomycin C (final concentration: 10 μM), Paclitaxel (final concentration: 4 μM), or Staurosporine (final concentration: 1 μM) was added on the gel in which the cell spheroids were embedded, and then 0.1 μL ( 1/1000 of the culture medium amount) of “Nuclear ID green/red cell viability reagent” (manufactured by Enzo Life Science, Inc.) was further added thereto, followed by culturing them for 48 hours to infiltrate. By adding the live/dead determination reagent, the living cells were stained with red fluorescence and the dead cells were stained with green fluorescence. As a control, a cultivation in which a culture medium containing only the live/dead determination reagent was used was carried out in the same manner as the above-described cultivation except that the anticancer agents were not added.
The fluorescently labeled samples prepared in the above-described sections <Anticancer Agent Treatment and Treatment for Live/dead Determination> and <Anticancer Agent Treatment and Actin Staining> were imaged with a confocal laser microscope “FV 1200” (manufactured by Olympus Corporation). A 20-fold objective lens ([…]×20) was used to image, and the Z-slice interval was 2 μm. The total number of Z-slices was 60 to 100.
The series of plane tomographic image groups obtained by imaging the respective fluorescently labeled samples were superimposed to construct a stereoscopic image. The obtained stereoscopic image was binarized to obtain a binarized image.
For the binarized images obtained from the fluorescently labeled samples treated with the live/dead determination reagent, the number of cell nuclei of red fluorescence and green fluorescent were measured.

MDA-MB231 cells [2] = test: Evaluation of protrusion-forming ability of cell spheroids from stereoscopic image (central sphere volume ratio); format: cell-based, human; conditions: 48 hours, L-Sulforaphane 10 μM, Batimastat 4 μM, Mitomycin C 10 μM, Paclitaxel 4 μM, Staurosporine 1 μM
Method: as §1, §2
as §3, with “gel. […]” for “gel.”

## CNC(=O)[C@H](Cc1ccccc1)NC(=O)[C@H](CC(C)C)[C@H](CSc1cccs1)C(=O)NO [Batimastat]
MDA-MB231 cells [1]
  number of dead cells (share of cells): about 24%
  Number of Dead cells: 562
  Number of Living cells: 1738

## CO[C@@]12[C@H](COC(N)=O)C3=C(C(=O)C(C)=C(N)C3=O)N1C[C@@H]1N[C@@H]12 [Mitomycin C]
MDA-MB231 cells [2]; FIG. 3, actin staining
  central sphere volume ratio ([volume of non-protrusion part]/[total volume of cell spheroid]) from stereoscopic image: higher central sphere volume ratio as compared with the remaining three anticancer agent-treated samples
MDA-MB231 cells [2]; stereoscopic image
  protrusion formation / protrusion-forming ability: suppressed more strongly

## CN[C@@H]1C[C@H]2O[C@@](C)([C@@H]1OC)n1c3ccccc3c3c4c(c5c6ccccc6n2c5c31)C(=O)NC4 [Staurosporine]
MDA-MB231 cells [1]
  number of dead cells (share of cells): about 70%
  Number of Dead cells: 1631 ± 414
  Number of Living cells: 576 ± 67
MDA-MB231 cells [1]; MDA-MB231 spheroid
  induction of cell death: cell death was induced

Source: patent publication US10914726B2, “Method for evaluating protrusion-forming ability of cell spheroids” (priority 2017, dated 2021)
